Test results as given in the NIST ThermoML archive (doi:10.1016/j.jct.2015.08.014).
Numbers after ± are expanded uncertainties.

Assay: xn = mol fraction of the nth substance listed
Conditions: 283.15 K, 100 kPa, Liquid, Alternating current cell with electrodes

For `CCCC[N+]1(C)CCCC1.N#CN=C=[N-]` [1-butyl-1-methylpyrrolidinium dicyanamide] + O=C1CCCO1, the electrical conductivity (Frequency=0.003 MHz, x1 = 0.1859) was 2.028 ± 0.02 S/m, the electrical conductivity (Frequency=0.003 MHz, x1 = 0.2493) was 1.925 ± 0.019 S/m and the electrical conductivity (Frequency=0.003 MHz, x1 = 0.3029) was 1.84 ± 0.019 S/m. The electrical conductivity (Frequency=0.003 MHz, x1 = 0.3845) was 1.66 ± 0.017 S/m, the electrical conductivity (Frequency=0.003 MHz, x1 = 0.4985) was 1.407 ± 0.014 S/m and the electrical conductivity (Frequency=0.003 MHz, x1 = 0.6954) was 1.07 ± 0.01 S/m. The electrical conductivity (Frequency=0.003 MHz, x1 = 0.9013) was 0.849 ± 0.009 S/m, the electrical conductivity (Frequency=0.003 MHz, x1 = 1) was 0.786 ± 0.008 S/m and the electrical conductivity (Frequency=0.00347222 MHz, x1 = 0.0463) was 1.17 ± 0.02 S/m. For the same compound, the electrical conductivity (Frequency=0.00347222 MHz, x1 = 0.0987) was 1.73 ± 0.021 S/m, the electrical conductivity (Frequency=0.00347222 MHz, x1 = 0.1449) was 1.93 ± 0.02 S/m and the electrical conductivity (Frequency=0.00347222 MHz, x1 = 0.1859) was 2.028 ± 0.02 S/m. The electrical conductivity (Frequency=0.00347222 MHz, x1 = 0.2493) was 1.925 ± 0.019 S/m, the electrical conductivity (Frequency=0.00347222 MHz, x1 = 0.3029) was 1.84 ± 0.019 S/m and the electrical conductivity (Frequency=0.00347222 MHz, x1 = 0.3845) was 1.66 ± 0.017 S/m. The electrical conductivity (Frequency=0.00347222 MHz, x1 = 0.4985) was 1.407 ± 0.014 S/m, the electrical conductivity (Frequency=0.00347222 MHz, x1 = 0.6954) was 1.07 ± 0.01 S/m and the electrical conductivity (Frequency=0.00347222 MHz, x1 = 0.9013) was 0.849 ± 0.009 S/m. For the same compound, the electrical conductivity (Frequency=0.00347222 MHz, x1 = 1) was 0.786 ± 0.008 S/m, the electrical conductivity (Frequency=0.004 MHz, x1 = 0.0463) was 1.17 ± 0.02 S/m and the electrical conductivity (Frequency=0.004 MHz, x1 = 0.0987) was 1.73 ± 0.021 S/m. For the same compound, the electrical conductivity (Frequency=0.004 MHz, x1 = 0.1449) was 1.93 ± 0.02 S/m, the electrical conductivity (Frequency=0.004 MHz, x1 = 0.1859) was 2.028 ± 0.02 S/m and the electrical conductivity (Frequency=0.004 MHz, x1 = 0.2493) was 1.926 ± 0.019 S/m. For the same compound, the electrical conductivity (Frequency=0.004 MHz, x1 = 0.3029) was 1.84 ± 0.019 S/m, the electrical conductivity (Frequency=0.004 MHz, x1 = 0.3845) was 1.66 ± 0.017 S/m and the electrical conductivity (Frequency=0.004 MHz, x1 = 0.4985) was 1.407 ± 0.014 S/m. The electrical conductivity (Frequency=0.004 MHz, x1 = 0.6954) was 1.07 ± 0.01 S/m, the electrical conductivity (Frequency=0.004 MHz, x1 = 0.9013) was 0.849 ± 0.009 S/m and the electrical conductivity (Frequency=0.004 MHz, x1 = 1) was 0.786 ± 0.008 S/m. For the same compound, the electrical conductivity (Frequency=0.00446429 MHz, x1 = 0.0463) was 1.17 ± 0.02 S/m, the electrical conductivity (Frequency=0.00446429 MHz, x1 = 0.0987) was 1.73 ± 0.021 S/m and the electrical conductivity (Frequency=0.00446429 MHz, x1 = 0.1449) was 1.93 ± 0.02 S/m. The electrical conductivity (Frequency=0.00446429 MHz, x1 = 0.1859) was 2.028 ± 0.02 S/m, the electrical conductivity (Frequency=0.00446429 MHz, x1 = 0.2493) was 1.926 ± 0.019 S/m and the electrical conductivity (Frequency=0.00446429 MHz, x1 = 0.3029) was 1.84 ± 0.019 S/m. The electrical conductivity (Frequency=0.00446429 MHz, x1 = 0.3845) was 1.66 ± 0.017 S/m, the electrical conductivity (Frequency=0.00446429 MHz, x1 = 0.4985) was 1.407 ± 0.014 S/m and the electrical conductivity (Frequency=0.00446429 MHz, x1 = 0.6954) was 1.07 ± 0.01 S/m. It also gave an electrical conductivity (Frequency=0.00446429 MHz, x1 = 0.9013) of 0.849 ± 0.009 S/m, an electrical conductivity (Frequency=0.00446429 MHz, x1 = 1) of 0.786 ± 0.008 S/m and an electrical conductivity (Frequency=0.005 MHz, x1 = 0.0463) of 1.17 ± 0.02 S/m. It also gave an electrical conductivity (Frequency=0.005 MHz, x1 = 0.0987) of 1.73 ± 0.021 S/m, an electrical conductivity (Frequency=0.005 MHz, x1 = 0.1449) of 1.93 ± 0.02 S/m and an electrical conductivity (Frequency=0.005 MHz, x1 = 0.1859) of 2.028 ± 0.02 S/m. It also gave an electrical conductivity (Frequency=0.005 MHz, x1 = 0.2493) of 1.926 ± 0.019 S/m, an electrical conductivity (Frequency=0.005 MHz, x1 = 0.3029) of 1.84 ± 0.019 S/m and an electrical conductivity (Frequency=0.005 MHz, x1 = 0.3845) of 1.66 ± 0.017 S/m. For the same compound, the electrical conductivity (Frequency=0.005 MHz, x1 = 0.4985) was 1.407 ± 0.014 S/m, the electrical conductivity (Frequency=0.005 MHz, x1 = 0.6954) was 1.07 ± 0.01 S/m and the electrical conductivity (Frequency=0.005 MHz, x1 = 0.9013) was 0.849 ± 0.009 S/m. The electrical conductivity (Frequency=0.005 MHz, x1 = 1) was 0.786 ± 0.008 S/m, the electrical conductivity (Frequency=0.005454 MHz, x1 = 0.0463) was 1.17 ± 0.02 S/m and the electrical conductivity (Frequency=0.005454 MHz, x1 = 0.0987) was 1.73 ± 0.021 S/m. It also gave an electrical conductivity (Frequency=0.005454 MHz, x1 = 0.1449) of 1.93 ± 0.02 S/m, an electrical conductivity (Frequency=0.005454 MHz, x1 = 0.1859) of 2.028 ± 0.02 S/m and an electrical conductivity (Frequency=0.005454 MHz, x1 = 0.2493) of 1.926 ± 0.019 S/m. The electrical conductivity (Frequency=0.005454 MHz, x1 = 0.3029) was 1.84 ± 0.019 S/m, the electrical conductivity (Frequency=0.005454 MHz, x1 = 0.3845) was 1.66 ± 0.017 S/m and the electrical conductivity (Frequency=0.005454 MHz, x1 = 0.4985) was 1.407 ± 0.014 S/m. The electrical conductivity (Frequency=0.005454 MHz, x1 = 0.6954) was 1.07 ± 0.01 S/m, the electrical conductivity (Frequency=0.005454 MHz, x1 = 0.9013) was 0.849 ± 0.009 S/m and the electrical conductivity (Frequency=0.005454 MHz, x1 = 1) was 0.786 ± 0.008 S/m. It also gave an electrical conductivity (Frequency=0.006 MHz, x1 = 0.0463) of 1.17 ± 0.02 S/m, an electrical conductivity (Frequency=0.006 MHz, x1 = 0.0987) of 1.73 ± 0.021 S/m and an electrical conductivity (Frequency=0.006 MHz, x1 = 0.1449) of 1.93 ± 0.02 S/m. The electrical conductivity (Frequency=0.006 MHz, x1 = 0.1859) was 2.028 ± 0.02 S/m, the electrical conductivity (Frequency=0.006 MHz, x1 = 0.2493) was 1.926 ± 0.019 S/m and the electrical conductivity (Frequency=0.006 MHz, x1 = 0.3029) was 1.84 ± 0.019 S/m. The electrical conductivity (Frequency=0.006 MHz, x1 = 0.3845) was 1.66 ± 0.017 S/m, the electrical conductivity (Frequency=0.006 MHz, x1 = 0.4985) was 1.407 ± 0.014 S/m and the electrical conductivity (Frequency=0.006 MHz, x1 = 0.6954) was 1.07 ± 0.01 S/m. For the same compound, the electrical conductivity (Frequency=0.006 MHz, x1 = 0.9013) was 0.849 ± 0.009 S/m, the electrical conductivity (Frequency=0.006 MHz, x1 = 1) was 0.786 ± 0.008 S/m and the electrical conductivity (Frequency=0.00652174 MHz, x1 = 0.0463) was 1.17 ± 0.02 S/m. For the same compound, the electrical conductivity (Frequency=0.00652174 MHz, x1 = 0.0987) was 1.73 ± 0.021 S/m, the electrical conductivity (Frequency=0.00652174 MHz, x1 = 0.1449) was 1.93 ± 0.02 S/m and the electrical conductivity (Frequency=0.00652174 MHz, x1 = 0.1859) was 2.028 ± 0.02 S/m. The electrical conductivity (Frequency=0.00652174 MHz, x1 = 0.2493) was 1.926 ± 0.019 S/m, the electrical conductivity (Frequency=0.00652174 MHz, x1 = 0.3029) was 1.84 ± 0.019 S/m and the electrical conductivity (Frequency=0.00652174 MHz, x1 = 0.3845) was 1.66 ± 0.017 S/m. The electrical conductivity (Frequency=0.00652174 MHz, x1 = 0.4985) was 1.407 ± 0.014 S/m, the electrical conductivity (Frequency=0.00652174 MHz, x1 = 0.6954) was 1.07 ± 0.01 S/m and the electrical conductivity (Frequency=0.00652174 MHz, x1 = 0.9013) was 0.849 ± 0.009 S/m. The electrical conductivity (Frequency=0.00652174 MHz, x1 = 1) was 0.786 ± 0.008 S/m, the electrical conductivity (Frequency=0.00694444 MHz, x1 = 0.0463) was 1.17 ± 0.02 S/m and the electrical conductivity (Frequency=0.00694444 MHz, x1 = 0.0987) was 1.73 ± 0.021 S/m. The electrical conductivity (Frequency=0.00694444 MHz, x1 = 0.1449) was 1.93 ± 0.02 S/m, the electrical conductivity (Frequency=0.00694444 MHz, x1 = 0.1859) was 2.028 ± 0.02 S/m and the electrical conductivity (Frequency=0.00694444 MHz, x1 = 0.2493) was 1.926 ± 0.019 S/m. The electrical conductivity (Frequency=0.00694444 MHz, x1 = 0.3029) was 1.84 ± 0.019 S/m, the electrical conductivity (Frequency=0.00694444 MHz, x1 = 0.3845) was 1.66 ± 0.017 S/m and the electrical conductivity (Frequency=0.00694444 MHz, x1 = 0.4985) was 1.407 ± 0.014 S/m. For the same compound, the electrical conductivity (Frequency=0.00694444 MHz, x1 = 0.6954) was 1.07 ± 0.01 S/m, the electrical conductivity (Frequency=0.00694444 MHz, x1 = 0.9013) was 0.849 ± 0.009 S/m and the electrical conductivity (Frequency=0.00694444 MHz, x1 = 1) was 0.786 ± 0.008 S/m. It also gave an electrical conductivity (Frequency=0.0075 MHz, x1 = 0.0463) of 1.17 ± 0.02 S/m, an electrical conductivity (Frequency=0.0075 MHz, x1 = 0.0987) of 1.73 ± 0.021 S/m and an electrical conductivity (Frequency=0.0075 MHz, x1 = 0.1449) of 1.93 ± 0.02 S/m. The electrical conductivity (Frequency=0.0075 MHz, x1 = 0.1859) was 2.028 ± 0.02 S/m, the electrical conductivity (Frequency=0.0075 MHz, x1 = 0.2493) was 1.926 ± 0.019 S/m and the electrical conductivity (Frequency=0.0075 MHz, x1 = 0.3029) was 1.84 ± 0.019 S/m. It also gave an electrical conductivity (Frequency=0.0075 MHz, x1 = 0.3845) of 1.66 ± 0.017 S/m, an electrical conductivity (Frequency=0.0075 MHz, x1 = 0.4985) of 1.407 ± 0.014 S/m and an electrical conductivity (Frequency=0.0075 MHz, x1 = 0.6954) of 1.07 ± 0.01 S/m. For the same compound, the electrical conductivity (Frequency=0.0075 MHz, x1 = 0.9013) was 0.849 ± 0.009 S/m and the electrical conductivity (Frequency=0.0075 MHz, x1 = 1) was 0.786 ± 0.008 S/m.
